Series [1] addresses T1, murine sEH (MsEH) (Mus musculus, UniProt P34914).
T1 sequence (P34914 1-554): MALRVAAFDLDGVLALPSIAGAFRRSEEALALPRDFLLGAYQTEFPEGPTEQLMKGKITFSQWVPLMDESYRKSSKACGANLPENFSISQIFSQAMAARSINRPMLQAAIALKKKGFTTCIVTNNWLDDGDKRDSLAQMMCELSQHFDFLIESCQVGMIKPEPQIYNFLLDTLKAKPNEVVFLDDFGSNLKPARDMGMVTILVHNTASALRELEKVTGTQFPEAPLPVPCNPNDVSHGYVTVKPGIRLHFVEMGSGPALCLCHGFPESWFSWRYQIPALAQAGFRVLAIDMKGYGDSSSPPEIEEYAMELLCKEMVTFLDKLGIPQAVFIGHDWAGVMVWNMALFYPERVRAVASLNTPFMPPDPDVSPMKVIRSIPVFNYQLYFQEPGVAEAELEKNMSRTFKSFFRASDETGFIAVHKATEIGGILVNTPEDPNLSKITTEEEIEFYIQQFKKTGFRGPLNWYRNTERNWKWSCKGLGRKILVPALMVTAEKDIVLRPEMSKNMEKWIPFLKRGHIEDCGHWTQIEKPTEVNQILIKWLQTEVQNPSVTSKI
The experiment in a line: biochemical.
Protocol: (§1) Detection principle: a specific substrate, (3-phenyl-oxy)-acetic acid cyano-(6-methoxy-naphthalen-2-yl) methyl ester, namely PHOME, is non-fluorescent but can be hydrolyzed under the action of sEH enzyme to generate a product 6-methoxy-2-naphthaldehyde. […] Based on the above principle, the inhibition rates of samples with different concentrations were calculated compared with the positive control group. The IC50 value of the compound was calculated based on the inhibition rate and concentration using SPSS 20 software.
(§2) PHOME solution: 0.79 mg PHOME was dissolved in 106 µL DMSO to obtain a 20 mM PHOME solution, which was diluted to 1/3 mM with Tris-HCl buffer when used.
(§3) sEH solution: sEH (5 mg/mL) stock solution was stored in a -80°C refrigerator and diluted to 4 µg/mL with 25 mM Tris-HCl buffer when used.
(§4) A sample powder to be tested was dissolved in DMSO to a 20 mM solution, stored in a - 20°C refrigerator for later use, and diluted with Tris-HCl buffer to the corresponding concentration when used.
(§5) Experimental design: solvent group, 100% activity group (A), inhibitor group (B), positive control group (C), as shown in Table 1.
(§6) Three replicate wells were set for each sample, and the average of the three replicate wells was the fluorescence value (F) of the compound to be tested. […] The IC50 value of the compound was calculated based on the inhibition rate and concentration using SPSS 20 software.
(§7) The activity of the compounds was evaluated using a biochemical method with [cyano-(6-methoxynaphthalen-2-yl)methyl] 2-(3-phenyloxiran-2-yl)acetate (PHOME) as a substrate using recombinant human sEH (HsEH) and murine sEH (MsEH).

Series [2] addresses T2, recombinant human sEH (HsEH) (Homo sapiens, UniProt P34913).
T2 sequence (P34913 1-555): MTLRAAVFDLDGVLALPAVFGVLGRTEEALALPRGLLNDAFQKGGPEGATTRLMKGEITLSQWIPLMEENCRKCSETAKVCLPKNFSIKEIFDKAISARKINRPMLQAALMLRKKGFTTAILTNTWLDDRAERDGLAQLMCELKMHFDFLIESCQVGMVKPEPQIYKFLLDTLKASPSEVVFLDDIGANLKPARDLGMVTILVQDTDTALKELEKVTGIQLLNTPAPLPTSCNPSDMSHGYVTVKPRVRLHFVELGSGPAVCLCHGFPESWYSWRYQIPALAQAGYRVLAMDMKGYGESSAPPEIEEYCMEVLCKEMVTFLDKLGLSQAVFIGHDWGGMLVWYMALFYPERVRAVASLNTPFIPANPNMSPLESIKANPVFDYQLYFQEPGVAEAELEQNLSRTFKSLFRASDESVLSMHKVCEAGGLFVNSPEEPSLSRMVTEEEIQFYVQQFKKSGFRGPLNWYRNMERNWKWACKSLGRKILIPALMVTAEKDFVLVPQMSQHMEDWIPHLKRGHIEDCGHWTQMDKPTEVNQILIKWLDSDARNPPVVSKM
Protocol: as §1, §2, §3, §4, §5, §6, §7

The target of series [3] is T3, PPARγ (Homo sapiens, UniProt P37231).
T3 sequence (P37231 204-505): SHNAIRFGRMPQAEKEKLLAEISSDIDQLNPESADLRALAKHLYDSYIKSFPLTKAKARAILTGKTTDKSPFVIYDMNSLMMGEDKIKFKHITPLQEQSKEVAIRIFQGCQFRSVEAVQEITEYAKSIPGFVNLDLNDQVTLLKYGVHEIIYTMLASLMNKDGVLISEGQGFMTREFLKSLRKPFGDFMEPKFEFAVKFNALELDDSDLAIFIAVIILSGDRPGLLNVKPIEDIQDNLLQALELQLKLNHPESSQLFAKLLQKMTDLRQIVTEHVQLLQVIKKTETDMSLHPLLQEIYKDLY
The experiment in a line: PPARγ agonist activity test (luciferase reporter gene). The series is classed as cell-based. The following applies: for PPARγ (compared with Rosiglitazone, %): relative to Rosiglitazone. An excerpt:
• 1. PPARγ agonist activity test Detection principle: when pM-hPPAR binds to the appropriate ligand, and is activated and binds to the GAL4DNA binding site in the plasmid pB4-RES-tk-luc, thereby initiating the expression of the downstream luciferase reporter gene. The amount of luciferase is detected to determine whether the compound to be tested is a PPAR agonist. • 2.
In general terms: A reporter such as luciferase makes a cellular process visible.

A short description of series [4]: Pharmacokinetics after intravenous and oral administration. The following applies: rats, i.v. 10 mg/kg. The method, then:
Blood levels were measured within 8 hours after oral administration. […] Table 7 PK of SP-B07 after intravenous and oral administration in rats (n=3)

The source of these data is patent EP4563573A1, “COMPOUND, AND PREPARATION METHOD THEREFOR AND USE THEREOF IN PREPARATION OF SEH INHIBITOR AND PPARS AGONIST” (Shenyang Pharmaceutical University, priority 2023, dated 2024).

What is called IC50 is the midpoint of a concentration-inhibition curve. As usually defined, the EC50 is the concentration at which the effect is half-maximal.

Regarding `CCOC(=O)CC(=O)Nc1ccc(O[C@H]2CC[C@H](NC(=O)Nc3ccc(OC(F)(F)F)c(F)c3)CC2)cc1` [SP-C01s], the IC50 in series [1] was determined as 0.6 nM; in series [2], 0.3 nM. Moreover, the “PPARγ (compared with Rosiglitazone, %)” value in series [3] came out at 0.3%.

Consider `CC12CC3CC(C)(C1)CC(NC(=O)N1CCC(Oc4ccc(/C=C5\SC(=O)NC5=O)cc4)CC1)(C3)C2` [SP-B02], for which the 50% inhibitory concentration (IC50) is 23.4 nM in series [1] and 19.9 nM in series [2]. In series [3], the “PPARγ (compared with Rosiglitazone, %)” value worked out at 14.6%.

With `CC(=O)Oc1ccc(O[C@H]2CC[C@H](NC(=O)Nc3ccc(OC(F)(F)F)c(F)c3)CC2)cc1` [SP-C01, phenyl 4-(((1r,4r)-4-(3-(3-fluoro-4-(trifluoromethoxy)phenyl)ureido)cyclohexyl)oxy)acetate], the “time at which maximum concentration was reached after intravenous injection” value in series [4] is reported as 2 min.

For `NC(=O)c1ccc(O[C@H]2CC[C@H](NC(=O)Nc3ccc(OC(F)(F)F)cc3)CC2)cc1` [SP-C01i], the IC50 in series [1] turned out to be 0.7 nM; in series [2], 0.3 nM. Also, the “PPARγ (compared with Rosiglitazone, %)” value in series [3] came to 12.97%.

Consider `CC12CC3CC(C)(C1)CC(NC(=O)N1CCC(Oc4ccc(/C=C5\NC(=O)NC5=O)cc4)CC1)(C3)C2` [SP-B03, N-[(1r,3R,5S,7r)-3,5-dimethyladamantan-1-yl]-4-{4-[(Z)-(2,5-dioxyimidazolin-4-ylidene)methyl]phenoxy}piperidin-1-carboxamide], for which the half-maximal inhibitory concentration (IC50) in series [1] worked out at 135 nM; in series [2] it was 121 nM. Besides, the “PPARγ (compared with Rosiglitazone, %)” value in series [3] was found to be 10.2%.

For `CC12CC3CC(C)(C1)CC(NC(=O)N[C@H]1CC[C@H](Oc4ccc(CC5SC(=O)NC5=O)cc4)CC1)(C3)C2` (some centres unmarked) [SP-A01], half-maximal inhibition in series [1] (IC50) was put at 0.54 nM. In addition, in series [2], the IC50 turned out to be 0.55 nM. Also, in series [3], a half-maximal response (EC50) required 6.77 µM and the “PPARγ (compared with Rosiglitazone, %)” value was 34.5%.

For the molecule `CC12CC3CC(C)(C1)CC(NC(=O)N1CCC(Oc4ccc(CC5SC(=O)NC5=O)cc4)CC1)(C3)C2` (centres unmarked) [SP-A02], the IC50 in series [1] was found to be 8.3 nM; in series [2] it was 83.5 nM. Besides, in series [3], the “PPARγ (compared with Rosiglitazone, %)” value was determined as 25.2%.

Take `O=C(Nc1ccc(OC(F)(F)F)c(F)c1)N[C@H]1CC[C@H](Oc2ccc(/C=C3\SC(=O)NC3=O)cc2)CC1` [SP-B06]: the values for the IC50 in series [1] and in series [2] were 1.1 nM and 0.69 nM, respectively. In series [3], the “PPARγ (compared with Rosiglitazone, %)” value is listed as 19.3%.

Consider `O=C1NC(=O)/C(=C/c2ccc(OC3CCN(C(=O)Nc4ccc(OC(F)(F)F)cc4)CC3)cc2)S1` [SP-B05, (Z)-4-{4-[(2,4-dioxothiazolidin-5-ylidene)methyl]phenoxy}-N-[4-(trifluoromethoxy)phenyl]piperidin-1-carboxamide], for which the “PPARγ (compared with Rosiglitazone, %)” value in series [3] was 17.3%.

In the case of `O=C1NC(=O)/C(=C/c2ccc(OC3CCN(C(=O)Nc4ccc(OC(F)(F)F)cc4)CC3)cc2)N1` [SP-B04], the IC50 came out at 108 nM in series [1] and 156 nM in series [2]. The “PPARγ (compared with Rosiglitazone, %)” value in series [3] was 9.6%.

Regarding `O=C(Nc1ccc(OC(F)(F)F)c(F)c1)N[C@H]1CC[C@H](Oc2ccc(CC3SC(=O)NC3=O)cc2)CC1` (some centres unmarked) [SP-A07], the IC50 amounted to 0.67 nM in series [1] and 0.07 nM in series [2]. The response in series [3] was half-maximal at 7.75 µM (EC50). In series [3], the “PPARγ (compared with Rosiglitazone, %)” value is 21.1%.

With `CC(=O)Nc1ccc(O[C@H]2CC[C@H](NC(=O)Nc3ccc(OC(F)(F)F)c(F)c3)CC2)cc1` [SP-C01k, N-(4-(((1r,4r)-4-(3-(3-fluoro-4-(trifluoromethoxy)phenyl)ureido)cyclohexyl)oxy)phenyl)acetamide], in series [3], the “PPARγ (compared with Rosiglitazone, %)” value was 0.3%.
